Source: PMC10796436, “Peptidyl nitroalkene inhibitors of main protease rationalized by computational and crystallographic investigations as antivirals against SARS-CoV-2” (Communications Chemistry, 2024)
“And” between values parts separate entries of the source, which are not always exact repeats. Identical values can stand only once. Like-named read-outs stand apart in the source and are kept apart here.

Tests used:
[1] = calibration compound; cited from earlier work
SARS-CoV-2 M^pro [2] = target: T1, SARS-CoV-2 M^pro (Severe acute respiratory syndrome coronavirus 2, UniProt P0DTD1); assay: biochemical; conditions: M^pro from pMal-M^pro vector
SARS-CoV-2 M^pro [3] = target: T1, SARS-CoV-2 M^pro; assay: Mpro FRET inhibition, continuous fluorometric assay (Fluorolog-3), enzyme from pET21-M^pro vector; assay type: biochemical; conditions: read-out: Ki (μM)^b
M^pro [4] = target: T2, M^pro (Severe acute respiratory syndrome coronavirus 2, UniProt P0DTD1); assay: biochemical; assay type: binding
SARS-CoV-2 = assay: microbe, parasite or virus in culture; assay type: cell-based; conditions: for EC50: Huh-7-ACE2, 24h p.t., MOI=0.1; for virus titer Mean (%): mean of Exp.1-3; for virus titer (pfu/ml) / virus titer (%) of conc 0: single experiments
[5] = target: Zika Virus NS2B/NS3 (bZiPro) (Zika virus, UniProt A0A024B7W1); assay: Zika virus protease inhibition, fluorometric assay; assay type: biochemical; conditions: 20 μM
[6] = target: human matriptase (MT-SP1) (Homo sapiens, UniProt Q9Y5Y6); assay: Matriptase inhibition, fluorometric assay; assay type: biochemical; conditions: 20 μM
cathepsin B (CatB) = target: T3, cathepsin B (CatB) (Homo sapiens, UniProt P07858); assay: Cathepsin B inhibition, fluorometric assay; assay type: biochemical; conditions: read-out: Ki CatB
T3 construct: purchased Calbiochem (Merck Millipore)

cathepsin L (CatL) = target: T4, cathepsin L (CatL) (Homo sapiens, UniProt P07711); assay: Cathepsin L inhibition, fluorometric assay; assay type: biochemical; conditions: read-out: Ki CatL
T4 construct: purchased Calbiochem (Merck Millipore)

rhodesain (RhD) = target: T5, rhodesain (RhD) (Trypanosoma brucei rhodesiense, UniProt Q95PM0); assay: Rhodesain inhibition, fluorometric assay; assay type: biochemical; conditions: read-out: Ki RhD
T5 construct: made in house

cruzain (CRZ) = cruzain (CRZ) (Trypanosoma cruzi, UniProt P25779); assay: Cruzain inhibition, fluorometric assay; assay type: biochemical; conditions: read-out: Ki CRZ
in vitro = conditions: human
M^pro [7] = target: T2, M^pro; assay: Binding to M^pro by ultracentrifugation (sedimentation method)
M^pro [8] = target: T2, M^pro; assay type: biochemical; conditions: for Fluorescence reading (progress curve): triplicate wells
Protocol: Buffer: 20 mM Tris, 0.1 mM EDTA, 1 mM DTT, 200 mM NaCl pH = 7.5. For the dilution assay Nirmatrelvir[21] was used as a reversible control and LM188[54] as an irreversible control (Fig. 10).
The incubation was done at RT for 30 min in assay buffer. DMSO was used as a control. After incubation the Enzyme/Inhibitor (or DMSO) mixtures were diluted 100-fold in assay buffer.
The preincubation was done in assay buffer (20 mM Tris, 0.1 mM EDTA, 1 mM DTT, 200 mM NaCl, pH = 7.5), at RT for 30 min. After incubation the mixtures were diluted […]
proteolytic activity of the enzyme was measured as described for the enzymatic assays using the […]
activity was measured over 1 h.
Inhibition assay58. Trypsin: Enzyme: bovine trypsin purchased from Sigma-Aldrich (St. Louis, […]
Substrate: Cbz-FR-AMC purchased from Bachem (Bubendorf, Switzerland), [Substrate]: 40 µM […]
The activity against bovine trypsin was tested at 20 µM inhibitor concentration. […]

Chain of cruzain (CRZ) (P25779 123-467): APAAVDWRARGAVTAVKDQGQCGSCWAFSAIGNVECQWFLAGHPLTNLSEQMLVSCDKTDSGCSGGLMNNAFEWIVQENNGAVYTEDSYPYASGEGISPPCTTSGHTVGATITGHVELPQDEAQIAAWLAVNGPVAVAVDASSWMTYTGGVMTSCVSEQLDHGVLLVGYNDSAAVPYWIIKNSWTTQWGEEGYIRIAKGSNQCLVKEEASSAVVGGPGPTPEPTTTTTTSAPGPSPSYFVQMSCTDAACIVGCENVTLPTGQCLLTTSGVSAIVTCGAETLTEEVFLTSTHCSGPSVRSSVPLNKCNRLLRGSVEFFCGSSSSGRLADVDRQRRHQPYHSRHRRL
Chain of Zika Virus NS2B/NS3 (bZiPro) (A0A024B7W1 1425-1464): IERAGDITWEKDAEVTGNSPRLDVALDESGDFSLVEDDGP
Chain of Zika Virus NS2B/NS3 (bZiPro) (A0A024B7W1 1503-1680): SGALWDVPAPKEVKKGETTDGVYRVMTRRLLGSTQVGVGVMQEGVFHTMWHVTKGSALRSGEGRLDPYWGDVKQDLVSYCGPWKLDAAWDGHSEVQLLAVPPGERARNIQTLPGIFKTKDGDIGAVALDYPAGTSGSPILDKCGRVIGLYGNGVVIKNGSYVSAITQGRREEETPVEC
T5 sequence (Q95PM0 entry or part of it): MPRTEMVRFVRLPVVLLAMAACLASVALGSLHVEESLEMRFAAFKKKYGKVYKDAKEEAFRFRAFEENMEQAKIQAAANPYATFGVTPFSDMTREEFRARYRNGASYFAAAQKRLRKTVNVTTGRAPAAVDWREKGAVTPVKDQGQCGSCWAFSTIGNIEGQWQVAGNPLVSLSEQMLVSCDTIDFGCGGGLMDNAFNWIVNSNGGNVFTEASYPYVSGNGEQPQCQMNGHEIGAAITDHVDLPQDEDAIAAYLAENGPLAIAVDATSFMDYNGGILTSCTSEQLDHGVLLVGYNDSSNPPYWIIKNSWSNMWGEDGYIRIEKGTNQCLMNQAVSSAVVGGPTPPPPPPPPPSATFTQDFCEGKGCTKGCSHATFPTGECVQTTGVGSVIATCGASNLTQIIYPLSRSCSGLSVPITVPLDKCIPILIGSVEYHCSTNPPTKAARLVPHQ
T4 sequence (P07711 114-288 limits assumed): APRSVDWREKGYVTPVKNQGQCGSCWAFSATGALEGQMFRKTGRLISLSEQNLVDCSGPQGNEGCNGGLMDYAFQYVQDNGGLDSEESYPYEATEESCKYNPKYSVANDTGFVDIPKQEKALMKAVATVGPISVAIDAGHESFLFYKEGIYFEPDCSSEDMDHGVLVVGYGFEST
T4 sequence (P07711 292-333 limits assumed): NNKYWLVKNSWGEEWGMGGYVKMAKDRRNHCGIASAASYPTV
Chain of human matriptase (MT-SP1) (Q9Y5Y6 615-855 limits assumed, other chains not shown): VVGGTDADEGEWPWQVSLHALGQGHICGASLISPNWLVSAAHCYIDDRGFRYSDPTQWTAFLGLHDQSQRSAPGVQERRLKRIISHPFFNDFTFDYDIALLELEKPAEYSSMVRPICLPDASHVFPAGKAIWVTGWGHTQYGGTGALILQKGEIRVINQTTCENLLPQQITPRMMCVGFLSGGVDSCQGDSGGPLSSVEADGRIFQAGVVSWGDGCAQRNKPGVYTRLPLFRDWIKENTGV

For `CC(=O)c1ccccc1` [Acetophenone], the “Chromatographic Hydrophobicity Index (publication)” value [1] is given as 64.90.
For `c1ccc2[nH]cnc2c1` [Benzimidazole], the “Chromatographic Hydrophobicity Index (publication)” value [1] is listed as 30.71.
In the case of `CCCC(=O)c1ccccc1` [Butyrophenone], the “Chromatographic Hydrophobicity Index (publication)” value [1] is given as 88.49.
For `O=C(N[C@@H](Cc1ccccc1)C(=O)N[C@H](/C=C/[N+](=O)[O-])CCc1ccccc1)OCc1ccccc1` [FGA86], the inhibition at 20 µM (SARS-CoV-2 M^pro [2]) was 17%, the Ki (SARS-CoV-2 M^pro [3]) was 2.67 ± 0.29 µM and the “change of Tm of M^pro” value (M^pro [4]; 25 µM) was 0.9 ± 0.4 °C. The ΔTm at 25 µM (M^pro [4]; 25 µM, read-out: DTm (°C)) was 0.9 °C and the “change of Tm of M^pro” value (M^pro [4]; 100 μM) was −1.7 ± 0.4 °C.
For `CC(C)CC(NC(=O)C=Cc1ccccc1)C(=O)NC(C=C[N+](=O)[O-])CC1CCNC1=O` (centres unmarked) [FGA145], the EC50 (SARS-CoV-2) was 11.7 µM, the EC50 (SARS-CoV-2; Severe acute respiratory syndrome coronavirus 2, 24 h) was 11.7 µM and the “virus titer Mean (%)” value (SARS-CoV-2; conc 0.1) was 99%. The “virus titer (pfu/ml)” value (SARS-CoV-2; conc 0.1) was 1400000 pfu/ml and 1000000 pfu/ml and 1070000 pfu/ml, the “virus titer Mean (%)” value (SARS-CoV-2; conc 0.5) was 119% and the “virus titer (%) of conc 0” value (SARS-CoV-2; conc 0.5) was 160% and 90% and 107%. The “virus titer (pfu/ml)” value (SARS-CoV-2; conc 0.5) was 1600000 pfu/ml and 1800000 pfu/ml and 1070000 pfu/ml, the “virus titer Mean (%)” value (SARS-CoV-2; conc 1) was 120% and the “virus titer (pfu/ml)” value (SARS-CoV-2; conc 1) was 1400000 pfu/ml and 1500000 pfu/ml. For the same compound, the “virus titer Mean (%)” value (SARS-CoV-2; conc 5) was 108.333%, the “virus titer (%) of conc 0” value (SARS-CoV-2; conc 5) was 120% and 75% and 130% and the “virus titer (pfu/ml)” value (SARS-CoV-2; conc 5) was 1200000 pfu/ml and 1500000 pfu/ml and 1300000 pfu/ml. For the same compound, the “virus titer Mean (%)” value (SARS-CoV-2; conc 10) was 25.6667%, the “virus titer (pfu/ml)” value (SARS-CoV-2; conc 10) was 400000 pfu/ml and 200000 pfu/ml and 270000 pfu/ml and the “virus titer Mean (%)” value (SARS-CoV-2; conc 50) was 0.07467%. The “virus titer (%) of conc 0” value (SARS-CoV-2; conc 50) was 0.2% and 0.01% and 0.014%, the “virus titer Mean (%)” value (SARS-CoV-2; conc 100) was 0.017% and the “virus titer (%) of conc 0” value (SARS-CoV-2; conc 100) was 0.006% and 0.02% and 0.025%. For the same compound, the bZiPro [5] was “n.i. (no inhibition (<10%) was observed at a concentration of 20 μM)”, the Ki (SARS-CoV-2 M^pro [2]) was 3.71 ± 0.38 µM and the MT-SP1 [6] was “n.i. (no inhibition (<10%) was observed at a concentration of 20 μM)”. For the same compound, the Ki (cathepsin B (CatB)) was 0.206 ± 0.041 µM, the Ki (cathepsin L (CatL)) was 0.053 ± 0.0041 µM and the Ki (rhodesain (RhD)) was 0.00163 ± 0.00022 µM. The Ki (cruzain (CRZ)) was 0.0126 ± 0.0015 µM, the CC50 (in vitro) was greater than 100 µM and the Ki (SARS-CoV-2 M^pro [3]) was 9.82 ± 1.5 µM. The “change of Tm of M^pro” value (M^pro [4]; 25 µM) was −1.1 ± 0.2 °C, the ΔTm at 25 µM (M^pro [4]; 25 µM, read-out: DTm (°C)) was -1.1 °C and the “change of Tm of M^pro” value (M^pro [4]; 100 μM) was −3.7 ± 0.1 °C. The “Fraction bound, Absorption” value (M^pro [7]; ligand concentration 0.5) was 0.01689, the “Fraction bound, Absorption” value (M^pro [7]; ligand concentration 1) was 0.05068 and the “Fraction bound, Absorption” value (M^pro [7]; ligand concentration 5) was 0.2419. For the same compound, the “Fraction bound, Absorption” value (M^pro [7]; ligand concentration 10) was 0.373, the “Fraction bound, Absorption” value (M^pro [7]; ligand concentration 25) was 0.7297 and the “Fraction bound, Absorption” value (M^pro [7]; ligand concentration 50) was 0.9595. The “Fraction bound, Absorption” value (M^pro [7]; ligand concentration 100) was 1.009 and the Kd (M^pro [7]; ultracentrifugation, 25 °C) was 11.8 ± 1.05 µM.
For `CC(C)C[C@H](NC(=O)[C@@H](NC(=O)[C@H](C)NC(=O)OC(C)(C)C)C(C)C)C(=O)N[C@H](/C=C/[N+](=O)[O-])CCc1ccccc1` [FGA159], the Ki (SARS-CoV-2 M^pro [2]) was 21.8 ± 1.5 µM, the Ki (SARS-CoV-2 M^pro [3]) was 1.19 ± 0.18 µM and the ΔTm at 5 µM (M^pro [4]; 5 µM, read-out: DTm (°C)) was 2.6 °C. For the same compound, the ΔTm at 25 µM (M^pro [4]; 25 µM, read-out: DTm (°C)) was 2.5 °C and the “change of Tm of M^pro” value (M^pro [4]; concentration range between 5 and 100 μM) was 2.5 ± 0.2 °C.
With `CC(C)CC(NC(=O)C=Cc1ccccc1)C(=O)NC(C=C[N+](=O)[O-])CCc1ccccc1` (centres unmarked) [FGA177] the inhibition at 20 µM (SARS-CoV-2 M^pro [2]) was 25%, the Ki (SARS-CoV-2 M^pro [3]) was 8.59 ± 1.6 µM and the ΔTm at 25 µM (M^pro [4]; 25 µM, read-out: DTm (°C)) was 0.1 °C. For the same compound, the “change of Tm of M^pro” value (M^pro [4]; range of 25 to 100 μM) was 0.1 ± 0.2 °C.
In the case of `COc1cccc2[nH]c(C(=O)N[C@@H](CC(C)C)C(=O)N[C@H](/C=C/S(=O)(=O)c3ccccc3)C[C@@H]3CCNC3=O)cc12` [LM188, reference compound], the “Fluorescence reading (progress curve)” value (M^pro [8]; Time 180.071 s) is reported as 253 and 247, the “Fluorescence reading (progress curve)” value (M^pro [8]; Time 210.081 s) is reported as 256 and 250 and the “Fluorescence reading (progress curve)” value (M^pro [8]; Time 240.095 s) is reported as 254 and 247. For the same compound, the “Fluorescence reading (progress curve)” value (M^pro [8]; Time 270.113 s) was 256 and 248, the “Fluorescence reading (progress curve)” value (M^pro [8]; Time 300.118 s) was 253 and 248 and 250 and the “Fluorescence reading (progress curve)” value (M^pro [8]; Time 330.126 s) was 256 and 248 and 247. For the same compound, the “Fluorescence reading (progress curve)” value (M^pro [8]; Time 360.134 s) was 249 and 246 and 248, the “Fluorescence reading (progress curve)” value (M^pro [8]; Time 390.141 s) was 253 and 250 and 249 and the “Fluorescence reading (progress curve)” value (M^pro [8]; Time 420.149 s) was 251 and 247 and 248. For the same compound, the “Fluorescence reading (progress curve)” value (M^pro [8]; Time 450.157 s) was 255 and 249 and 250, the “Fluorescence reading (progress curve)” value (M^pro [8]; Time 480.18 s) was 255 and 244 and the “Fluorescence reading (progress curve)” value (M^pro [8]; Time 2881.2 s) was 249 and 222 and 233. The “Fluorescence reading (progress curve)” value (M^pro [8]; Time 2911.21 s) was 247 and 222 and 232, the “Fluorescence reading (progress curve)” value (M^pro [8]; Time 2941.22 s) was 252 and 222 and 230 and the “Fluorescence reading (progress curve)” value (M^pro [8]; Time 2971.24 s) was 250 and 221 and 231. For the same compound, the “Fluorescence reading (progress curve)” value (M^pro [8]; Time 3001.25 s) was 248 and 221 and 233, the “Fluorescence reading (progress curve)” value (M^pro [8]; Time 3031.26 s) was 247 and 219 and 231 and the “Fluorescence reading (progress curve)” value (M^pro [8]; Time 3061.27 s) was 249 and 220 and 232. The “Fluorescence reading (progress curve)” value (M^pro [8]; Time 3091.28 s) was 249 and 219 and 230, the “Fluorescence reading (progress curve)” value (M^pro [8]; Time 3121.29 s) was 250 and 222 and 232 and the “Fluorescence reading (progress curve)” value (M^pro [8]; Time 3151.3 s) was 246 and 219 and 232. For the same compound, the “Fluorescence reading (progress curve)” value (M^pro [8]; Time 3181.31 s) was 246 and 220 and 232, the “Fluorescence reading (progress curve)” value (M^pro [8]; Time 3211.32 s) was 246 and 221 and 231 and the “Fluorescence reading (progress curve)” value (M^pro [8]; Time 3241.33 s) was 243 and 219 and 230. For the same compound, the “Fluorescence reading (progress curve)” value (M^pro [8]; Time 3271.34 s) was 248 and 221 and 229, the “Fluorescence reading (progress curve)” value (M^pro [8]; Time 3301.35 s) was 245 and 216 and 230 and the “Fluorescence reading (progress curve)” value (M^pro [8]; Time 3331.36 s) was 246 and 218 and 230. For the same compound, the “Fluorescence reading (progress curve)” value (M^pro [8]; Time 3361.37 s) was 243 and 219 and 232, the “Fluorescence reading (progress curve)” value (M^pro [8]; Time 3391.39 s) was 244 and 216 and 230 and the “Fluorescence reading (progress curve)” value (M^pro [8]; Time 3421.39 s) was 241 and 217 and 230. For the same compound, the “Fluorescence reading (progress curve)” value (M^pro [8]; Time 3451.41 s) was 245 and 215 and 227, the “Fluorescence reading (progress curve)” value (M^pro [8]; Time 3481.42 s) was 249 and 217 and 230 and the “Fluorescence reading (progress curve)” value (M^pro [8]; Time 3511.43 s) was 242 and 218 and 229. The “Fluorescence reading (progress curve)” value (M^pro [8]; Time 3541.44 s) was 244 and 216 and 229, the “Fluorescence reading (progress curve)” value (M^pro [8]; Time 3571.45 s) was 243 and 214 and 228 and the “recovery of M^pro activity after 100-fold dilution” value (M^pro [8]; preincubation 30 min) was “no visible recovery of activity”.
For `c1ccc(-c2nnn[nH]2)cc1` [Phenyltetrazole], the “Chromatographic Hydrophobicity Index (publication)” value [1] is given as 20.18.
In the case of `CCC(=O)c1ccccc1` [Propiophenone], the “Chromatographic Hydrophobicity Index (publication)” value [1] is given as 78.41.
For `Cn1c(=O)c2[nH]cnc2n(C)c1=O` [Theophylline], the “Chromatographic Hydrophobicity Index (publication)” value [1] is given as 15.76.
For `CCCCC(=O)c1ccccc1` [Valerophenone], the “Chromatographic Hydrophobicity Index (publication)” value [1] is given as 97.67.
